# Columns and labels:
# [1] = system: human melanoma cancer (LOX-IMV1); test: Anticancer effects on human melanoma cancer (LOX-IMV1) xenograft
# Procedure: Nude mice were purchased and stored in a specific pathogen free (SPF) room of the Korea Research Institute of Bioscience and Biotechnology, and allowed to acclimate for 1 week before use. Human melanoma cancer, that is, LOX-IMV1 cells were injected subcutaneously into each nude mouse at a concentration of 1.5×10^6 cells. […] As a positive control group, adriamycin was administered intravenously at a concentration of 2 mg/kg once a week for total 3 times.
# (§1) Standard deviations (SDs) and p-values of all test results were calculated using ANOVA (Prisim, GraphPad software, USA) and student's t-test.
# [2] = system: human pancreatic cancer (AsPC-1); test: Anticancer effects on human pancreatic cancer (AsPC-1) xenograft; type: in vivo, nude mice
# Procedure: Nude mice were purchased and stored in a specific pathogen free (SPF) room of the Korea Research Institute of Bioscience and Biotechnology, and allowed to acclimate for 1 week before use. Human pancreatic cancer, that is, AsPC1 cells were injected subcutaneously into each nude mouse at a concentration of 9×10^6 cells. […] As a positive control group, adriamycin was administered intravenously at a concentration of 2 mg/kg once a week for total 4 times.
# as §1
# [3] = system: human colon cancer (SW620); test: Anticancer effects on human colon cancer (SW620) xenograft; type: in vivo, nude mice
# Procedure: Nude mice were purchased and stored in a specific pathogen free (SPF) room of the Korea Research Institute of Bioscience and Biotechnology, and allowed to acclimate for 1 week before use. Human colon cancer, that is, SW620 cells were injected subcutaneously into each nude mouse at a concentration of 6×10^6 cells. […] As a positive control group, adriamycin was administered intravenously at a concentration of 2 mg/kg once a week for total 4 times.
# as §1
# [4] = system: human prostate cancer (PC-3); test: Anticancer effects on human prostate cancer (PC-3) xenograft; type: in vivo, nude mice
# Procedure: Nude mice were purchased and stored in a specific pathogen free (SPF) room of the Korea Research Institute of Bioscience and Biotechnology, and allowed to acclimate for 1 week before use. Human prostate cancer, that is, PC-3 cells were injected subcutaneously into each nude mouse at a concentration of 9×10^6 cells. […] As a positive control group, adriamycin was administered intravenously at a concentration of 2 mg/kg once a week for total 4 times.
# as §1
# [5] = system: human renal cancer (ACHN); test: Anticancer effects on human renal cancer (ACHN) xenograft
# Procedure: Nude mice were purchased and stored in a specific pathogen free (SPF) room of the Korea Research Institute of Bioscience and Biotechnology, and allowed to acclimate for 1 week before use. Human renal cancer, that is, ACHN cells were injected subcutaneously into each nude mouse at a concentration of 1.2×10^7 cells. […] As a positive control group, adriamycin was administered intravenously at a concentration of 2 mg/kg once a week for total 4 times.
# Standard deviations (SDs) and p-values of all test results were calculated using ANOVA (Prisim. GraphPad software, USA) and student's t-test.
# [6] = adriamycin 2 mg/kg i.v., day 15
# [7] = adriamycin 2 mg/kg i.v., day 25
# [8] = day 25 compared with Day-1 (100%), adriamycin 2 mg/kg
# [9] = adriamycin 2 mg/kg i.v., day 22
# [10] = adriamycin 2 mg/kg i.v., day 28
structure (smiles),measurement,setting,value
COc1cccc2c1C(=O)c1c(O)c3c(c(O)c1C2=O)C[C@@](O)(C(=O)CO)C[C@@H]3O[C@H]1C[C@H](N)[C@H](O)[C@H](C)O1 [adriamycin],growth inhibition (tumor size),[1]; [6],72%
same,growth inhibition (tumor weight),[1]; [6],70%
same,tumor weight,[1]; [6],496 ± 306 mg
same,Tumor growth rate (%) compared to the control group,"[1]; adriamycin (2 mg/kg), day 15, LOX-IMVI",30 ± 18%
same,body weight change,"[1]; day 15 compared with Day-1, adriamycin 2 mg/kg",122%
same,growth inhibition (tumor size),[2]; [7],48%
same,growth inhibition (tumor weight),[2]; [7],44%
same,tumor size,[2]; [7],130±28 mm^3
same,tumor weight,[2]; [7],473 ± 64 mg
same,Tumor growth rate (%) compared to the control group,"[2]; adriamycin (2 mg/kg), day 25, AsPC-1",55 ± 8%
same,body weight change,[2]; [8],125%
same,growth inhibition (tumor size),[3]; [7],48%
same,growth inhibition (tumor weight),[3]; [7],49%
same,tumor size,[3]; [7],142±97 mm^3
same,tumor weight,[3]; [7],834 ± 306 mg
same,Tumor growth rate (%) compared to the control group,"[3]; adriamycin (2 mg/kg), day 25, SW-620",54 ± 28%
same,body weight change,[3]; [8],114%
same,growth inhibition (tumor size),[4]; [9],40%
same,growth inhibition (tumor weight),[4]; [9],40%
same,tumor size,[4]; [9],225±59 mm^3
same,tumor weight,[4]; [9],808 ± 156 mg
same,Tumor growth rate (%) compared to the control group,"[4]; adriamycin (2 mg/kg), day 22, PC-3",60 ± 12%
same,body weight change,"[4]; day 22 compared with Day-1 (100%), adriamycin 2 mg/kg",102%
same,growth inhibition (tumor size),[5]; [10],40%
same,growth inhibition (tumor weight),[5]; [10],37%
same,tumor size,[5]; [10],192±44 mm^3
same,tumor weight,[5]; [10],409 ± 41 mg
same,Tumor growth rate (%) compared to the control group,"[5]; adriamycin (2 mg/kg), day 28, ACHN",63 ± 6%
same,body weight change,"[5]; day 28 compared with Day-1 (100%), adriamycin 2 mg/kg",95%
